Laboratory results as given in patent US6908926B1, “Substituted imidazoles, their preparation and use” (Novo Nordisk A/S, priority 1999, dated 2005).

A melting point of 169 to 171 °C was found for Cc1cccc(COC(=O)N2CCc3[nH]cnc3C2)c1.O=C(O)C(=O)O [Example 21, 4,5,6,7-Tetrahydroimidazo[4,5-c]pyridine-5-carboxylic Acid 3-methylbenzyl Ester Oxalate] in this work. A melting point of 174 to 176 °C was found for O=C(O)C(=O)O.O=C(OCCC1CCCCC1)N1CCc2nc[nH]c2C1 [Example 40, 4,5,6,7-Tetrahydroimidazo[4,5-c]pyridine-5-carboxylic Acid 2-cyclohexylethyl Ester Oxalate] in this work. A melting point of 155 to 157 °C was found for Cc1cccc(CCOC(=O)N2CCc3[nH]cnc3C2)c1.O=C(O)C(=O)O [Example 24, 4,5,6,7-Tetrahydroimidazo[4,5-c]pyridine-5-carboxylic Acid 2-(3-methylphenyl)ethyl Ester Oxalate] in this work. A melting point of 176 to 178 °C was found for Cc1ccc(COC(=O)N2CCc3[nH]cnc3C2)c(C)c1.O=C(O)C(=O)O [Example 28, 4,5,6,7-Tetrahydroimidazo[4,5-c]pyridine-5-carboxylic Acid 2,4-dimethylbenzyl Ester Oxalate] in this work. A melting point of 173 to 175 °C was found for O=C(O)C(=O)O.O=C(OCc1ccccc1Cl)N1CCc2nc[nH]c2C1 [Example 42, 4,5,6,7-Tetrahydroimidazo[4,5-c]pyridine-5-carboxylic Acid 2-chlorobenzyl Ester Oxalate] in this work. A melting point of 173 to 175 °C was found for O=C(O)C(=O)O.O=C(OCCc1cccs1)N1CCc2nc[nH]c2C1 [Example 36, 4,5,6,7-Tetrahydroimidazo[4,5-c]pyridine-5-carboxylic Acid 2-thiophen-2-ylethyl Ester Oxalate] in this work. A melting point of 193 to 194 °C was found for O=C(O)C(=O)O.O=C(OCCc1ccsc1)N1CCc2nc[nH]c2C1 [Example 37, 4,5,6,7-Tetrahydroimidazo[4,5-c]pyridine-5-carboxylic Acid 2-thiophen-3-ylethyl Ester Oxalate] in this work. A melting point of 163 to 165 °C was found for COc1cccc(COC(=O)N2CCc3[nH]cnc3C2)c1.O=C(O)C(=O)O [Example 19, 4,5,6,7-Tetrahydroimidazo[4,5-c]pyridine-5-carboxylic Acid 3-methoxybenzyl Ester Oxalate] in this work. A melting point of 176 to 178 °C was found for O=C(O)C(=O)O.O=C(OCC1CCCCC1)N1CCc2nc[nH]c2C1 [Example 41, 4,5,6,7-Tetrahydroimidazo[4,5-c]pyridine-5-carboxylic Acid Cyclohexylmethyl Ester Oxalate] in this work. A melting point of 171 to 173 °C was found for CCc1ccc(COC(=O)N2CCc3nc[nH]c3C2)cc1.O=C(O)C(=O)O [Example 34, 4,5,6,7-Tetrahydroimidazo[4,5-c]pyridine-5-carboxylic Acid 4-ethylbenzyl Ester Oxalate] in this work. A melting point of 166 to 168 °C was found for CC(C)c1ccc(COC(=O)N2CCc3nc[nH]c3C2)cc1.O=C(O)C(=O)O [Example 31, 4,5,6,7-Tetrahydroimidazo[4,5-c]pyridine-5-carboxylic Acid 4-isopropylbenzyl Ester Oxalate] in this work.
